Measured values published in patent publication US11160794B2, “Methods for treating congenital disorders of glycosylation” (Maggie's Pearl, LLC, priority 2018, dated 2021).
Counter-ions that a name gives are not always drawn.

Each molecule was assayed on SEC53 variant (pmm2 mutant) yeast (assay: Yeast growth rescue of SEC53 variant strains (validation of drug screen hits)). Conditions: haploid and heterozygous diploid cells; dose response.
Type: cell-based
Experimental: All strains used herein are in S288c background. Strains were grown in Synthetic Complete (“SC”) or SC drop out media (Sunrise)+2% dextrose at 30° C. unless otherwise noted. Standard genetic procedures of transformation and tetrad analysis were followed to construct strains. SEC53 rescue plasmid (pPL1) was generated by cloning the SEC53 promoter, open reading frame, and terminator sequences into the episomal pRS316 containing the URA3 selectable marker. SEC53 variants were generated by cloning the relevant promoter, GFP or SEC53 gene, and CYC1 terminator sequences into an integrating plasmid containing the LEU2 selectable marker and integrated at the SwaI restriction site into the HO locus. For PMM2 variants, the SEC53 ORF was replaced with a codon-optimized PMM2. Plasmids were generated by Next Interactions or GenScript. Strains were generated by Next Interactions or well-known techniques.
Cells from plates were resuspended in SC media to OD600=1.0, then serial diluted into 50 μL SC+FOA media in 384-well plates at 10^−1, 10^−2, and 10^−3. Plates were incubated at 30° C. and absorbance reading at […] were measured by a plate reader (Molecular Devices SpectraMax M3) at the indicated time points. Plates were vortexed briefly to resuspend cells prior to plate readings. 5-floroortic acid was purchased from US Biological and used at a concentration of 1 mg/L.
125 nL of compounds or DMSO were dispensed into 384-well plates using the Echo acoustic dispenser (LabCyte) to achieve a final concentration of 25 μM. 50 μL of 10^−2 dilution of an OD600=1.0 or 0.5 yeast cell suspensions were dispensed into the 384-well plates containing compounds or DMSO with a MultiFlo automated dispenser (Biotek). Plates were covered and incubated at 30° C. for 16-21 hours until OD600 reaches ˜0.8. Plates were vortexed briefly to resuspend cells prior to reading.
MicroSource Spectrum compounds were reordered from MicroSource Discovery Systems and resuspended in DMSO. 5-125 nL compounds or DMSO were dispensed into 384-well plates and 50 μL of yeast cell suspensions or media were dispensed by multichannel pipettes to achieve the desired concentration. Plates were covered and incubated at 30° C. for 16-23 hours until OD600 reaches ˜0.8. Plates were vortexed briefly to resuspend cells prior to plate readings.
pACT1-F126L, pSEC53-V238M, and pSEC53-F126L haploids and pACT1-F126L/pACT1-R148H, pSEC53-V238M/pSEC53-R148H, and pSEC53-F126L/pSEC53-R148H heterozygous diploids were advanced to a high-throughput drug screen. Screening was done in a 2,560 compound MicroSource Spectrum library collection consisting of FDA approved drugs, bioactive tool compounds, and natural products. Each strain was screened in duplicate and in 384-well plates, with each plate containing 32 wells of the negative control (no drugs) and 24 wells of the positive controls (wild type cells). […] Additionally, there is good correlation between replicates (correlation >0.4 for all panels). With a Z-score cutoff of 2.0, we initially identified six compounds that may be promising and their ability to rescue growth is conserved between the haploid and diploid strains.
These initial hits were further studied for validation. […] At the maximum dose tested, alpha-cyano-4-hydroxycinnamic acid (Compound 1) rescues the F126L allele by 17.7% in haploid and 24.5% in diploid cells.
With `Cc1ccc(C(=O)Nc2ccc(S(=O)(=O)O)c3cc(S(=O)(=O)O)cc(S(=O)(=O)O)c23)cc1NC(=O)c1cccc(NC(=O)Nc2cccc(C(=O)Nc3cc(C(=O)Nc4ccc(S(=O)(=O)O)c5cc(S(=O)(=O)O)cc(S(=O)(=O)O)c45)ccc3C)c2)c1` [Compound 3, 8-[[4-methyl-3-[[3-[[3-[[2-methyl-5-[(4,6,8-trisulfonaphthalen-1-yl)carbamoyl]phenyl]carbamoyl]phenyl]carbamoylamino]benzoyl]amino]benzoyl]amino]naphth alene-1,3,5-trisulfonic acid] the “rescue of growth of SEC53 alleles” value was “consistent and dose-dependent rescues”.
`NCCS` [cysteamine hydrochloride, reference compound] was tested, and the “rescue of growth of SEC53 alleles” value was “does not rescue at any dose”.

What follows are molecules tested on pmm-2 F125L/F125L worms (assay: Bortezomib-induced growth suppression rescue screen in pmm-2 F125L worms). Conditions: 25 μM drug, 11 μM Bzb, 5 days; one row per replicate.
Type: in vivo, nematode (worms)
Description: A F119L point mutation strain, orthologous F125L in worms was created.
Because an underlying defect in glycosylation may be manifested when subjected to external chemical stressors, Pmm-2 F119L homozygous animals were subjected to Tunicamycin and Bortezomib drug exposures. Tunicamycin is an inhibitor of N-linked glycosylation and Bortezomib (Bzb) is an irreversible inhibitor of the proteasome. It was contemplated that either or both drugs would affect the Pmm-2 mutants differently compared to wild type (“WT”).
Thus, Bzb-induced growth suppression was used as a means to identify compounds that might rescue the global effects of exacerbated glycosylation deficiency. Using this approach, animals were age-synchronized to obtain L1 larvae. Fifteen L1 larvae were dispensed into wells of a 384-well plate containing 25 μM of drugs (obtained from the MicroSource Spectrum library purchased from MicroSource Discovery Systems) and 11 μM Bzb. Bacterial media at fixed optical density was added to wells to enable worms to grow for a 5 day period. Animals were dispensed using Biosorter, a large particle flow cytometer by Union Biometrica, Mass. At the end of the 5 day period, animals were treated with 15 μls of 8 mM sodium azide (for 55 μls of total assay volume). After 20 minutes, immobilized animals were imaged using a plate imager under transmitted light. A custom image processing script was used to extract the areas occupied by worms/well over a 5 day period. Each plate has positive controls (no Bzb) and negative controls (11 μM Bzb) that was used to determine the z score of test wells per plate. After outlier correction for each plate in each replicate, data from all three replicates was compared. Wells per plate with positive z scores greater than 2 were identified as “hits.” If hits reproduced across all three replicates were then compared. […] At least 13 of the 20 compounds belong to the category of antioxidants; still others fall in the category of catecholamines
For `O=c1c(O)cccc2ccc(O)c(O)c12`, the Status was “HIT (Wells per plate with positive z scores greater than 2 were identified as “hits.”)”.
`COc1ccc(C(=O)c2ccc(O)cc2)c(O)c1O` [2,3,4′-TRIHYDROXY-4-METHOXYBENZOPHENONE, 2,3,4′-trihydroxy-4-methoxybenzophenone] was tested, and the Status was “HIT (Wells per plate with positive z scores greater than 2 were identified as “hits.”)”.
With `CCOc1cccc(C(=O)c2ccc(O)c(O)c2O)c1` [3,4-didesmethyl-5-deshydroxy-3′-ethoxyscleroin] the Status was “HIT (Wells per plate with positive z scores greater than 2 were identified as “hits.”)”.
For `COc1cccc(O)c1O` [3-METHOXYCATECHOL, 3-methoxycatechol], the Status was “HIT (Wells per plate with positive z scores greater than 2 were identified as “hits.”)”.
In the case of `Nc1ccc(O)c(N)c1` [AMIDOL DIHYDROCHLORIDE, amidol dihydrochloride], the Status is reported as “HIT (Wells per plate with positive z scores greater than 2 were identified as “hits.”)”.
In the case of `O=c1cc(-c2ccccc2)oc2cc(O)c(O)c(O)c12` [BAICALEIN, baicalein], the Status is reported as “HIT (Wells per plate with positive z scores greater than 2 were identified as “hits.”)”.
For `CC(CCc1ccc(O)cc1)NCCc1ccc(O)c(O)c1` (stereo not shown) [DOBUTAMINE HYDROCHLORIDE, dobutamine hydrochloride, reference compound], the Status was “HIT (Wells per plate with positive z scores greater than 2 were identified as “hits.”)”.
In the case of `CC1=NN(c2ccccc2)C(=O)C1` [EDARAVONE, edaravone, reference compound], the Status is reported as “HIT (Wells per plate with positive z scores greater than 2 were identified as “hits.”)”.
In the case of `O=c1oc2c(O)c(O)cc3c(=O)oc4c(O)c(O)cc1c4c23` [ELLAGIC ACID, ellagic acid], the Status is reported as “HIT (Wells per plate with positive z scores greater than 2 were identified as “hits.”)”.
With `O=C(O[C@@H]1Cc2c(O)cc(O)cc2O[C@@H]1c1ccc(O)c(O)c1)c1cc(O)c(O)c(O)c1` [EPICATECHIN MONOGALLATE, epicatechin monogallate] the Status was “HIT (Wells per plate with positive z scores greater than 2 were identified as “hits.”)”.
For `CCC(N)C(O)c1ccc(O)c(O)c1` (stereo not shown) [ETHYLNOREPINEPHRINE HYDROCHLORIDE, ethylnorepinephrine hydrochoride, reference compound], the Status was “HIT (Wells per plate with positive z scores greater than 2 were identified as “hits.”)”.
In the case of `O=c1c(O)c(-c2ccc(O)c(O)c2)oc2cc(O)ccc12` [FISETIN, fisetin], the Status is reported as “HIT (Wells per plate with positive z scores greater than 2 were identified as “hits.”)”.
`O=c1c(O)c(-c2ccc(O)c(O)c2)oc2c(O)c(O)cc(O)c12` [GOSSYPETIN, gossypetin] was tested, and the Status was “HIT (Wells per plate with positive z scores greater than 2 were identified as “hits.”)”.
In the case of `O=c1cc(-c2cc(O)c(O)c(O)c2)oc2cc(O)cc(O)c12` [HIERACIN, hieracin], the Status is reported as “HIT (Wells per plate with positive z scores greater than 2 were identified as “hits.”)”.
In the case of `COc1ccc(-c2coc3cc(O)ccc3c2=O)c(O)c1O` [KOPARIN, koparin], the Status is reported as “HIT (Wells per plate with positive z scores greater than 2 were identified as “hits.”)”.
For `N[C@@H](Cc1ccc(O)c(O)c1)C(=O)O` [LEVODOPA, levodopa, reference compound], the Status was “HIT (Wells per plate with positive z scores greater than 2 were identified as “hits.”)”.
In the case of `O=C(O)c1cc(O)c(=O)c2c(O)c(O)c(O)cc2c1` [PURPUROGALLIN-4-CARBOXYLIC ACID, purpurogallin-4-carboxylic acid], the Status is reported as “HIT (Wells per plate with positive z scores greater than 2 were identified as “hits.”)”.
In the case of `COc1cc(OC)c2c(=O)c(O)c(-c3ccc(OC)c(OC)c3)oc2c1` [QUERCETIN 5,7,3,4′-TETRAMETHYL ETHER, quercetin 5,7,3′,4′-tetramethyl ether], the Status is reported as “HIT (Wells per plate with positive z scores greater than 2 were identified as “hits.”)”.
`COc1cc(O)c2c(=O)c(O)c(-c3ccc(O)c(O)c3)oc2c1` [RHAMNETIN, rhamnetin] was tested, and the Status was “HIT (Wells per plate with positive z scores greater than 2 were identified as “hits.”)”.
In the case of `O=C(O[C@@H]1Cc2c(O)cc(O)cc2O[C@@H]1c1cc(O)c(=O)c2c(O)c(O)cc([C@H]3Oc4cc(O)cc(O)c4C[C@H]3O)c2c1)c1cc(O)c(O)c(O)c1` [THEAFLAVIN MONOGALLATES, theaflavin monogallate], the Status is reported as “HIT (Wells per plate with positive z scores greater than 2 were identified as “hits.”)”.
